This note sets out measurements from ChEMBL document CHEMBL1137113, “A convenient and biogenetic type synthesis of few naturally occurring chromeno dihydrochalcones and their in vitro antileishmanial activity” (2004).

For test [1], the system named is Leishmania donovani. Nature of the test: In-vitro antileishmanial activity was tested against extracellular promastigotes of Leishmania donovani at dose of 50 ug/mL; IA is inactive. In kind it is functional, organism-based.
Test [2] has as its system Leishmania donovani. In words: In-vitro antileishmanial activity was tested against intracellular amastigotes of Leishmania donovani at dose 50 ug/mL. In kind it is functional.
The test system of test [3] is Leishmania donovani. Nature of the test: In-vitro antileishmanial activity was tested against intracellular amastigotes of Leishmania donovani at dose 50 ug/mL; Toxic. In kind it is functional, organism-based.
Test [4] concerns Leishmania donovani. Nature of the test: In-vitro antileishmanial activity was tested against extracellular promastigotes of Leishmania donovani at dose of 50 ug/mL. In kind it is functional.
In test [5] the test system is Leishmania donovani. In words: In-vitro antileishmanial activity was tested against intracellular amastigotes of Leishmania donovani at dose 50 ug/mL; IA is inactive. In kind it is functional, organism-based.
The test system of test [6] is Leishmania donovani. In words: In-vitro antileishmanial activity was tested against intracellular amastigotes of Leishmania donovani at dose 5 ug/mL. In kind it is functional.
Test [7] deals with Leishmania donovani. Nature of the test: In-vitro antileishmanial activity was tested against extracellular promastigotes of Leishmania donovani at dose of 5 ug/mL. In kind it is functional.

Calls of active or inactive are those of the source. The rule behind the calls is not given here.

What is called inhibition is the share of the control response that was lost under treatment. With `COc1ccc(CCC(=O)c2ccc3c(c2O)C=CC(C)(C)O3)cc1OC`, the inhibition result in test [1] was “inactive”. Besides, in test [2], the inhibition at 50 µg/mL came out at 22%.

For the compound `CC1(C)C=Cc2c(ccc(C(=O)CCc3ccc(O)cc3)c2O)O1`, the inhibition entry in test [3] was “Toxic”. This compound showed an inhibition at 50 µg/mL in test [4] of 89%.

`CC1(C)C=Cc2c(ccc(C(=O)CCc3ccc(O)c(O)c3)c2O)O1` displayed an inhibition at 50 µg/mL in test [4] of 30%. In addition, the inhibition entry in test [5] is “inactive”.

With Stibanate, the inhibition entry in test [1] was “inactive”. In test [2], this compound showed an inhibition of 85%.

As to `COc1ccc(CCC(=O)c2ccc3c(c2O)C=CC(C)(C)O3)cc1`, the results for the inhibition at 50 µg/mL in test [2] and in test [4] were 47% and 78%, respectively.

Turning to `CC1(C)C=Cc2c(ccc(C(=O)/C=C/c3ccc(O)cc3)c2O)O1`, the values for the inhibition at 50 µg/mL in test [2] and in test [4] were 74% and 84%, respectively.

As for `COc1ccc(/C=C/C(=O)c2ccc3c(c2O)C=CC(C)(C)O3)cc1`, the inhibition at 50 µg/mL in test [2] came to 53%; in test [4], 85%.

For the compound `N=C(N)c1ccc(OCCCCCOc2ccc(C(=N)N)cc2)cc1` [PENTAMIDINE], the figures for the inhibition at 5 µg/mL in test [6] and in test [7] were 50% and 97%, respectively.

Regarding `COc1ccc(CCC(=O)c2ccc(O)cc2O)cc1OC`, the inhibition entry in test [3] was “Toxic”. For the same compound, the inhibition at 50 µg/mL in test [4] was determined as 79%.

For `COc1ccc(/C=C/C(=O)c2ccc(O)cc2O)cc1`, the values for the inhibition at 50 µg/mL in test [2] and in test [4] were 15% and 60%, respectively.
